This note sets out measurements from patent US20260124214A1, “HETEROCYCLIC COMPOUNDS FOR USE IN THE TREATMENT OF CANCER” (ARTIOS PHARMA LIMITED, priority 2021, published 2026).

Structures can show the parent of a compound that is named as a salt.

The test has as its target T1, Human Polθ polymerase domain (aa1820-2590) (Homo sapiens, UniProt O75417).
T1 construct: Human Polθ polymerase domain (aa1820-2590) was expressed in E. Coli; made in house; host or cells: E. coli
T1 sequence (O75417 1820-2590): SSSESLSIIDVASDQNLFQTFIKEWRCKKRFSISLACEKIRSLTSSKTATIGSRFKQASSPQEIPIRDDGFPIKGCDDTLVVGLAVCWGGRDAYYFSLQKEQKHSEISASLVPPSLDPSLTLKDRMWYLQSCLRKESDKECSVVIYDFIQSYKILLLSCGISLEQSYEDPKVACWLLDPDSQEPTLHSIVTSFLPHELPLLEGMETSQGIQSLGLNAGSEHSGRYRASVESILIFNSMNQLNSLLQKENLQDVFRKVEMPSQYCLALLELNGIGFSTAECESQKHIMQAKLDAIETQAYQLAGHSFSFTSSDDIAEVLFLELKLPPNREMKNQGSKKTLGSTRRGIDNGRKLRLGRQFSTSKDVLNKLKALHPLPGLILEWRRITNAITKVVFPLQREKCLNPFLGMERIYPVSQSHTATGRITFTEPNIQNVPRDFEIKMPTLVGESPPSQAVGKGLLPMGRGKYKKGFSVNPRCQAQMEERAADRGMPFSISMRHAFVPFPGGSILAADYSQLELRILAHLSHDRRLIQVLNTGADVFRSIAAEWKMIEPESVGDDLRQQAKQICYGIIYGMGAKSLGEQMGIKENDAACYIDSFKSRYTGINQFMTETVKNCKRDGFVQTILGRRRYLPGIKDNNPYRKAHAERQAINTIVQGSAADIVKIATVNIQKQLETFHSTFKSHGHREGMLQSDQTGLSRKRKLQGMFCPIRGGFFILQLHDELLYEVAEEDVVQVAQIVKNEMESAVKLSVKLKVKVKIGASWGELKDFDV
As to the kind of experiment: Polθ Polymerase Domain WT KI Assay (PicoGreen). The note with it: 100 nM DNA substrate, 0.156 nM Polθ, initial rates vs inhibitor concentration. The format is biochemical. On the procedure:
A PicoGreen assay was used to measure the KI values of reversible compounds that inhibit the activity of Polθ in vitro.
Human Polθ polymerase domain (aa1820-2590) was expressed in E. Coli, purified, aliquoted and stored at −80° C. until required. Polθ substrate was generated from a 1.2:1 mix of DNA II Short to DNA II Long to give a final concentration of […] substrate in annealing buffer (20 mM Tris pH 7.5, 50 mM NaCl). The substrate was heated in 50 mL aliquots to 95° C. in a heating block for 5 min before the heating block switched off, the reaction left to cool to rt and stored at −20° C. until required.
Assay measurements were performed with 1× buffer comprising 25 mM Tris pH 7.5, 12.5 mM NaCl, […], 5% (v/v) glycerol, 0.01% v/v Triton x-100, 0.1 mg/ml BSA, 1 mM DTT. […] 100 nL of 23×1:1.5-fold serial dilutions and a DMSO only control were dispensed using the Tecan dispenser into Greiner 384 well black low volume plates (product code 784076). DMSO concentration was maintained at 1% of the final assay volume by back filling with DMSO.
To stop the reaction, 5 μL of a solution containing 25 mM Tris-HCl PH 7.5 and 20 mM EDTA was added at […] (t=0, 15, 30, 60, 90, 120, 150, 180 mins) using the Tempest's time delay function. The plates were covered during the time course to prevent evaporation. After completing the assay, 5 μL of detection reagent (25 mM Tris-HCl pH 7.5 and 2.5% (v/v) PicoGreen) was dispensed into the wells using a Tempest liquid handler (Formulatrix) and plates subsequently read on the CLARIOstar Plus (BMG Labtech) using the default optical settings for fluorescein and the auto gain/focus settings.
All data analysis was carried out using GraphPad Prism V.8 (GraphPad Software Inc, San Diego, CA). Time course data for each inhibitor concentration were fitted to the linear regression model in GraphPad Prism. Any time points where the control (DMSO only) reaction was no longer linear were excluded from the analysis. The initial rates (slopes) obtained from the linear regression were then plotted against inhibitor concentration and fitted to an inhibitor vs. response variable slope (four parameter) model on GraphPad Prism to determine the KI values.
`Cc1cc(C(F)(F)F)cc(N2C(=O)C[C@@H]3CN(C[C@@H]4CCN(C)[C@@H](C)C4)c4c(Cl)cccc4N(C)C(=O)[C@H]32)n1` (single isomer, unassigned) [Example 126d] gave a Ki of 1.48 nM.
Regarding `Cc1cc(C(F)(F)F)cc(N2C(=O)C[C@@H]3CN(CC(C)O)c4c(F)cccc4N(C)C(=O)[C@H]32)n1` (single isomer, unassigned) [Example 130b], the Ki stood at 10.2 nM.
The value for `Cc1cc(C(F)(F)F)cc(N2C(=O)C[C@@H]3CN(CC(C)O)c4c(Cl)cccc4N(C)C(=O)[C@H]32)n1` (single isomer, unassigned) [Example 131b] was 1.92 nM.
As to `Cc1cc(C(F)(F)F)cc(N2C(=O)C[C@@H]3CN(CC(O)CN(C)C)c4c(Cl)cccc4N(C)C(=O)[C@H]32)n1` (single isomer, unassigned) [Example 132b], the Ki came out at 6.14 nM.
`Cc1cc(C(F)(F)F)cc(N2C(=O)C[C@@H]3CN(CC(O)CN4CCOCC4)c4c(Cl)cccc4N(C)C(=O)[C@H]32)n1` (single isomer, unassigned) [Example 133b] gave a Ki of 2.46 nM.
The molecule `Cc1cc(C(F)(F)F)cc(N2C(=O)C[C@@H]3CNc4c(F)cccc4N(C)C(=O)[C@H]32)n1` [Example 1, (3aR,11aS)-6-Fluoro-10-methyl-1-(6-methyl-4-(trifluoromethyl)pyridin-2-yl)-1,3a,4,5,10,11a-hexahydro-2H-benzo[b]pyrrolo[2,3-f][1,4]diazocine-2,11(3H)-dione] registered a Ki of 15.3 nM.
As to `Cc1cc(C(F)(F)F)cc(N2C(=O)C[C@@H]3CNc4c(Cl)cccc4N(C)C(=O)[C@H]32)n1` [Example 2, (3aR,11aS)-6-Chloro-10-methyl-1-(6-methyl-4-(trifluoromethyl)pyridin-2-yl)-1,3a,4,5,10,11a-hexahydro-2H-benzo[b]pyrrolo[2,3-f][1,4]diazocine-2,11(3H)-dione], the affinity corresponds to a Ki of 0.847 nM.
Molecule `Cc1cc(C(F)(F)F)cc(N2C(=O)C[C@@H]3CNc4c(C)cccc4N(C)C(=O)[C@H]32)n1` [Example 3, (3aR,11aS)-6,10-Dimethyl-1-(6-methyl-4-(trifluoromethyl)pyridin-2-yl)-1,3a,4,5,10,11a-hexahydro-2H-benzo[b]pyrrolo[2,3-f][1,4]diazocine-2,11(3H)-dione] yielded a Ki of 0.927 nM.
`C=CCN1C[C@H]2CC(=O)N(c3cc(C(F)(F)F)cc(C)n3)[C@@H]2C(=O)N(C)c2cccc(F)c21` [Example 4, (3aR,11aS)-5-Allyl-6-fluoro-10-methyl-1-(6-methyl-4-(trifluoromethyl)pyridin-2-yl)-1,3a,4,5,10,11a-hexahydro-2H-benzo[b]pyrrolo[2,3-f][1,4]diazocine-2,11(3H)-dione] showed a Ki of 8.33 nM.
Molecule `C=CCN1C[C@H]2CC(=O)N(c3cc(C(F)(F)F)cc(C)n3)[C@@H]2C(=O)N(C)c2cccc(Cl)c21` [Example 5, (3aR,11aS)-5-Allyl-6-chloro-10-methyl-1-(6-methyl-4-(trifluoromethyl)pyridin-2-yl)-1,3a,4,5,10,11a-hexahydro-2H-benzo[b]pyrrolo[2,3-f][1,4]diazocine-2,11(3H)-dione] had a Ki of 1.49 nM.
For `C=CCN1C[C@H]2CC(=O)N(c3cc(C(F)(F)F)cc(C)n3)[C@@H]2C(=O)N(C)c2c(F)c(F)cc(Cl)c21` [Example 6, (3aR,11aS)-5-Allyl-6-chloro-8,9-difluoro-10-methyl-1-(6-methyl-4-(trifluoromethyl)pyridin-2-yl)-1,3a,4,5,10,11a-hexahydro-2H-benzo[b]pyrrolo[2,3-f][1,4]diazocine-2,11(3H)-dione], affinity was put at a Ki of 5.14 nM.
Regarding `Cc1cc(C(F)(F)F)cc(N2C(=O)C[C@@H]3CN(CCN4CCN(C)CC4)c4c(Cl)cccc4N(C)C(=O)[C@H]32)n1` [Example 7, (3aR,11aS)-6-Chloro-10-methyl-1-(6-methyl-4-(trifluoromethyl)pyridin-2-yl)-5-(2-(4-methylpiperazin-1-yl)ethyl)-1,3a,4,5,10,11a-hexahydro-2H-benzo[b]pyrrolo[2,3-f][1,4]diazocine-2,11(3H)-dione], the Ki stood at 2 nM.
The value for `Cc1cc(C(F)(F)F)cc(N2C(=O)C[C@@H]3CN(CCN4CCN(C)CC4)c4c(Cl)cc(F)cc4N(C)C(=O)[C@H]32)n1` [Example 8, (3aR,11aS)-6-Chloro-8-fluoro-10-methyl-1-(6-methyl-4-(trifluoromethyl)pyridin-2-yl)-5-(2-(4-methylpiperazin-1-yl)ethyl)-1,3a,4,5,10,11a-hexahydro-2H-benzo[b]pyrrolo[2,3-f][1,4]diazocine-2,11(3H)-dione] was 4.36 nM; that for `Cc1cc(C(F)(F)F)cc(N2C(=O)C[C@@H]3CN(CCN4CCN[C@H](C)C4)c4c(Cl)cccc4N(C)C(=O)[C@H]32)n1` [Example 9, (3aR,11aS)-6-Chloro-10-methyl-1-(6-methyl-4-(trifluoromethyl)pyridin-2-yl)-5-(2-((R)-3-methylpiperazin-1-yl)ethyl)-1,3a,4,5,10,11a-hexahydro-2H-benzo[b]pyrrolo[2,3-f][1,4]diazocine-2,11(3H)-dione] was 1.4 nM; that for `Cc1cc(C(F)(F)F)cc(N2C(=O)C[C@@H]3CN(CCN4CCN(C)C[C@@H]4C)c4c(Cl)cccc4N(C)C(=O)[C@H]32)n1` [Example 10, (3aR,11aS)-6-Chloro-5-(2-((S)-2,4-dimethylpiperazin-1-yl)ethyl)-10-methyl-1-(6-methyl-4-(trifluoromethyl)pyridin-2-yl)-1,3a,4,5,10,11a-hexahydro-2H-benzo[b]pyrrolo[2,3-f][1,4]diazocine-2,11(3H)-dione Hydrochloride] was 2.18 nM.
The molecule `CC(=O)N1CCN(CCN2C[C@H]3CC(=O)N(c4cc(C(F)(F)F)cc(C)n4)[C@@H]3C(=O)N(C)c3cccc(Cl)c32)[C@@H](C)C1` [Example 11, (3aR,11aS)-5-(2-((S)-4-Acetyl-2-methylpiperazin-1-yl)ethyl)-6-chloro-10-methyl-1-(6-methyl-4-(trifluoromethyl)pyridin-2-yl)-1,3a,4,5,10,11a-hexahydro-2H-benzo[b]pyrrolo[2,3-f][1,4]diazocine-2,11(3H)-dione] returned a Ki of 1.52 nM.
`Cc1cc(C(F)(F)F)cc(N2C(=O)C[C@@H]3CN(CCN4CCN(C)CC4)c4ccccc4N(C)C(=O)[C@H]32)n1` [Example 13, (3aR,11aS)-10-Methyl-1-(6-methyl-4-(trifluoromethyl)pyridin-2-yl)-5-(2-(4-methylpiperazin-1-yl)ethyl)-1,3a,4,5,10,11a-hexahydro-2H-benzo[b]pyrrolo[2,3-f][1,4]diazocine-2,11(3H)-dione dihydrochloride] had a Ki of 51.1 nM.
The value for `Cc1cc(C(F)(F)F)cc(N2C(=O)C[C@@H]3CN(CCN4CC5(CCO5)C4)c4c(C)cccc4N(C)C(=O)[C@H]32)n1` [Example 14, (3aR,11aS)-5-(2-(1-Oxa-6-azaspiro[3.3]heptan-6-yl)ethyl)-6,10-dimethyl-1-(6-methyl-4-(trifluoromethyl)pyridin-2-yl)-1,3a,4,5,10,11a-hexahydro-2H-benzo[b]pyrrolo[2,3-f][1,4]diazocine-2,11(3H)-dione] was 0.757 nM.
`Cc1cc(C(F)(F)F)cc(N2C(=O)C[C@@H]3CN(CCN4CCN(C)[C@H](CO)C4)c4c(C)cccc4N(C)C(=O)[C@H]32)n1` [Example 15, (3aR,11aS)-5-(2-((S)-3-(Hydroxymethyl)-4-methylpiperazin-1-yl)ethyl)-6,10-dimethyl-1-(6-methyl-4-(trifluoromethyl)pyridin-2-yl)-1,3a,4,5,10,11a-hexahydro-2H-benzo[b]pyrrolo[2,3-f][1,4]diazocine-2,11(3H)-dione] came in with a Ki of 1.22 nM.

The term Ki denotes the equilibrium dissociation constant of an inhibitor or competing ligand from its target. Low readings indicate a stronger hold on the target, high ones a looser hold on the target.
